Biological target: T1, CD73 (Homo sapiens, UniProt P21589)
T1 sequence (P21589 27-549): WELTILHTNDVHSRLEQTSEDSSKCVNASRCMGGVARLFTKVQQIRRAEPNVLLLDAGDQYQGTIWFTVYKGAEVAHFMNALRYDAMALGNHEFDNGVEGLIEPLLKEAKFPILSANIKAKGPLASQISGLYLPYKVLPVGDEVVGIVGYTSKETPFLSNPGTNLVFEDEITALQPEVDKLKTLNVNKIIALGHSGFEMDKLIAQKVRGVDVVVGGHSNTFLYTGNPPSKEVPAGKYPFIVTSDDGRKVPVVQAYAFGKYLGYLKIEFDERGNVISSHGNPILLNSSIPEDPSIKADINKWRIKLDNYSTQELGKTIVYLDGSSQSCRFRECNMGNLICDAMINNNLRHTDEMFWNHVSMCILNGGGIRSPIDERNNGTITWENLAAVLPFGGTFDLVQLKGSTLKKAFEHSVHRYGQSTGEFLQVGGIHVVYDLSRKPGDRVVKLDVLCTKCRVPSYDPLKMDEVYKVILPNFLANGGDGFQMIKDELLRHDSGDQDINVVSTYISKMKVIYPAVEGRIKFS
Assay: Biochemical assay of CD73 inhibition (Malachite Green)
Details: CD73 0.3208 nM, AMP 15 μM, Tris-HCl pH 7.4, Malachite Green absorbance readout; read-out: CD73_Biochem
How it was run: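 CD73 (0.3208 nM) preincubated with compound 15 min at RT in 25 mM Tris-HCl pH 7.4, 5 mM MgCl2, 0.01% Brij-35, 0.01% BSA, then AMP (15 μM) added for 10 min at RT. Released phosphate detected by Malachite Green absorbance. IC50 from 10-point ½-log titrations starting at 100 μM, in duplicate.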

IC50 | SMILES
≤ 10 nM | COCC(COCc1nn[nH]n1)(OC[C@H]1O[C@@H](n2ncc3c(NC4CCCC4)nc(C#CC4CC4)nc32)[C@H](O)[C@@H]1O)P(=O)(O)O (stereo partly drawn) [Example 53, (1-((2H-tetrazol-5-yl)methoxy)-2-(((2R,3S,4R,5R)-5-(4-(cyclopentylamino)-6-(cyclopropylethynyl)-1H-pyrazolo[3,4-d]pyrimidin-1-yl)-3,4-dihydroxytetrahydrofuran-2-yl)methoxy)-3-methoxypropan-2-yl)phosphonic acid]
≤ 10 nM | O=P(O)(O)[C@@](CO)(COCc1nn[nH]n1)OC[C@H]1O[C@@H](n2ncc3c(NCC4CC4)nc(Cl)nc32)[C@H](O)[C@@H]1O [Example 54, ((S)-1-((2H-tetrazol-5-yl)methoxy)-2-(((2R,3S,4R,5R)-5-(6-chloro-4-((cyclopropylmethyl)amino)-1H-pyrazolo[3,4-d]pyrimidin-1-yl)-3,4-dihydroxytetrahydrofuran-2-yl)methoxy)-3-hydroxypropan-2-yl)phosphonic acid]
≤ 10 nM | O=P(O)(O)[C@@](CO)(COCc1nn[nH]n1)OC[C@H]1O[C@@H](n2ncc3c(NC4CCC4)nc(Cl)nc32)[C@H](O)[C@@H]1O [Example 55, ((S)-1-((2H-tetrazol-5-yl)methoxy)-2-(((2R,3S,4R,5R)-5-(6-chloro-4-(cyclobutylamino)-1H-pyrazolo[3,4-d]pyrimidin-1-yl)-3,4-dihydroxytetrahydrofuran-2-yl)methoxy)-3-hydroxypropan-2-yl)phosphonic acid]
≤ 10 nM | COCC(COCc1nn[nH]n1)(OC[C@H]1O[C@@H](n2ncc3c(N[C@@H]4CCc5ccccc54)nc(Cl)nc32)[C@H](O)[C@@H]1O)P(=O)(O)O (stereo partly drawn) [Example 56, (1-((2H-tetrazol-5-yl)methoxy)-2-(((2R,3S,4R,5R)-5-(6-chloro-4-(((R)-2,3-dihydro-1H-inden-1-yl)amino)-1H-pyrazolo[3,4-d]pyrimidin-1-yl)-3,4-dihydroxytetrahydrofuran-2-yl)methoxy)-3-methoxypropan-2-yl)phosphonic acid]
10 to 100 nM | CC(CS(C)(=O)=O)(OC[C@H]1O[C@@H](n2ncc3c(NC4CCCC4)nc(Cl)nc32)[C@H](O)[C@@H]1O)P(=O)(O)O (stereo partly drawn) [Example 57, (2-(((2R,3S,4R,5R)-5-(6-chloro-4-(cyclopentylamino)-1H-pyrazolo[3,4-d]pyrimidin-1-yl)-3,4-dihydroxytetrahydrofuran-2-yl)methoxy)-1-(methylsulfonyl)propan-2-yl)phosphonic acid]
≤ 10 nM | O=P(O)(O)[C@@](CO)(COCc1nn[nH]n1)OC[C@H]1O[C@@H](n2ncc3c(NCC4CCC4)nc(Cl)nc32)[C@H](O)[C@@H]1O [Example 58, ((S)-1-((2H-tetrazol-5-yl)methoxy)-2-(((2R,3S,4R,5R)-5-(6-chloro-4-((cyclobutylmethyl)amino)-1H-pyrazolo[3,4-d]pyrimidin-1-yl)-3,4-dihydroxytetrahydrofuran-2-yl)methoxy)-3-hydroxypropan-2-yl)phosphonic acid]
≤ 10 nM | [2H]C([2H])([2H])OC[C@](COCc1nn[nH]n1)(OC[C@H]1O[C@@H](n2ncc3c(NC4CCCC4)nc(Cl)nc32)[C@H](O)[C@@H]1O)P(=O)(O)O [Example 59, ((S)-1-((2H-tetrazol-5-yl)methoxy)-2-(((2R,3S,4R,5R)-5-(6-chloro-4-(cyclopentylamino)-1H-pyrazolo[3,4-d]pyrimidin-1-yl)-3,4-dihydroxytetrahydrofuran-2-yl)methoxy)-3-(methoxy-d3)propan-2-yl)phosphonic acid]
≤ 10 nM | O=P(O)(O)C(CO)(COCc1nn[nH]n1)OC[C@H]1O[C@@H](n2ncc3c(N[C@@H]4CCc5ccccc54)nc(Cl)nc32)[C@H](O)[C@@H]1O (stereo partly drawn) [Example 60, (1-((2H-tetrazol-5-yl)methoxy)-2-(((2R,3S,4R,5R)-5-(6-chloro-4-(((R)-2,3-dihydro-1H-inden-1-yl)amino)-1H-pyrazolo[3,4-d]pyrimidin-1-yl)-3,4-dihydroxytetrahydrofuran-2-yl)methoxy)-3-hydroxypropan-2-yl)phosphonic acid]
